From paper PMC10657444, “Design and evaluation of tadpole-like conformational antimicrobial peptides” (Communications Biology, 2023) come the findings set out here.

One data set concerns MRSA 3393. The data set is classed as cell-based, Staphylococcus aureus. To be noted: 3393. The text has this:
(§1) Bacteria were cultivated in Luria-Bertani (LB) broth.

Another data set concerns MRSA ATCC 43300. It is filed as cell-based, Staphylococcus aureus. To be noted: ATCC 43300.
Source text: as §1

The next data set has as its system MRSA USA 300. It is filed as cell-based, Staphylococcus aureus.
Source text: as §1

In another data set the test system is MRSA. It is filed as cell-based, Staphylococcus aureus.
Source text: as §1

Another data set has as its system E. coli ATCC 25922. The data set is classed as cell-based, Escherichia coli.
Source text: as §1

The test system of the next data set is E. coli S. It is filed as cell-based, Escherichia coli.
Source text: as §1

A further data set relates to A. baumannii 1318. The data set is classed as cell-based, Acinetobacter baumannii.
Source text: as §1

The next data set concerns A. baumannii 1337. The data set is classed as cell-based, Acinetobacter baumannii.
Source text: as §1

For the next data set, the system named is K. pneumoniae 3026. It is filed as cell-based, Klebsiella pneumoniae.
Source text: as §1

Data set [1] concerns K. pneumoniae ATCC 700603. The data set is classed as cell-based, Klebsiella pneumoniae.
Source text: as §1

The next data set in a line: MTT cytotoxicity assay. The data set is classed as cell-based, human. To be noted: human. How it is done: (§2) To determine the cytotoxicity of the peptides, we used the MTT (3-(4,5)-dimethylthiahiazo (-z-y1)-3,5-di-phenytetrazoliumromide) dye reduction assay against HEK293T cells. In brief, the 100 μL of cells in 96-well plate were incubated for 24 h at 37 °C, 5% CO2, and then peptide solutions (concentrations ranging from 100 to 0.39 μM) were added and further incubated for 72 h. MTT solution (5 mg/mL) was added and further incubated for 4 h. After incubation, the precipitated MTT formazan crystal was dissolved by addition of dimethyl sulfoxide (DMSO). […]
A general note: Tetrazolium assays rely on reduction of a dye to a coloured formazan, in cell work by metabolically active cells.

A further data set has as its system HEK293T cells. In words: MTT cytotoxicity assay. The data set is classed as cell-based, human. How it is done:
as §2

The test system of a further data set is sheep red blood cells. In words: Hemolysis assay. To be noted: red cells of sheep, 1 h. How it is done: To evaluate the hemolysis effects of peptides, red blood hemolysis was performed as described with minimum modifications. Sterile defibrated sheep blood was purchased from Guangzhou Hongquan Biotechnology Co., LTD. Blood cells were adjusted to 2 × 10^9 cells/mL in phosphate-buffered saline (PBS, pH 7.4). In total, 98 μL sheep red blood cell suspension was incubated with 2 μL of peptides at different concentrations ranging from 3.13 to 100 µM. After incubation for 1 h at 37 °C, the cells were centrifuged and the absorbance of the supernatant was measured at 450 nm. The value for “zero hemolysis” was determined using sterile PBS, while 100% hemolysis was established using 1.5% (v/v) Triton X-100. Hemolysis of testing sample was calculated as the percentage of Triton X-100-induced hemolysis.

For the next data set, the system named is Acinetobacter baumannii. The data set is classed as cell-based.
Source text: as §1

[2] abbreviates: HEK293T cells, OD450, cytotoxicity (Fig 2a), replicates.

Values after ≈ are worked out from the molar mass of the structure shown. Residues, ends and D or L forms follow the SMILES beside them.

The IC50 is the point on the concentration scale where inhibition reaches its midpoint. By viability is commonly meant the share of living cells, or the viability signal relative to a control. Lower therefore signals more harm to the cells. As to `CC[C@H](C)[C@H](NC(=O)[C@H](CCCNC(=N)N)NC(=O)[C@H](CCCNC(=N)N)NC(=O)[C@H](CC(C)C)NC(=O)[C@@H](N)Cc1ccccc1)C(=O)N[C@@H](Cc1ccccc1)C(=O)N[C@@H](Cc1ccccc1)C(=O)N[C@@H](Cc1ccccc1)C(=O)N[C@@H](Cc1ccccc1)C(N)=O` [HT1] (H-FLRRIFFFF-NH2), the “MIC Gram+ MRSA 3393” value against MRSA 3393 worked out at 6.25 µM (≈ 8.07 µg/mL). Also, the “MIC Gram+ MRSA ATCC 43300” value with MRSA ATCC 43300 came out at 3.13 µM (≈ 4.04 µg/mL). Moreover, in the data set with MRSA USA 300, the “MIC Gram+ MRSA USA 300” value was determined as 6.25 µM (≈ 8.07 µg/mL). The “MICs against MRSA” value against MRSA lay in the range of 3.13 to 6.25 µM. The “MIC Gram- E. coli ATCC 25922” value in the data set with E. coli ATCC 25922 amounted to 25 µM (≈ 32.3 µg/mL). The “MIC Gram- E. coli S” value in the data set with E. coli S was found to be 12.5 µM (≈ 16.1 µg/mL). Moreover, the “MIC Gram- A. b 1318” value in the data set with A. baumannii 1318 amounted to 25 µM (≈ 32.3 µg/mL). Besides, the “MIC Gram- A. b 1337” value in the data set with A. baumannii 1337 stood at 25 µM (≈ 32.3 µg/mL). The “MIC Gram- K. p 3026” value against K. pneumoniae 3026 is more than 100 µM. Further, in data set [1], the “MIC Gram- K. p ATCC 700603” value is more than 100 µM. The concentration for half-maximal inhibition (IC50) at 72 h in the data set “MTT cytotoxicity assay” came out at 2.7 µM. In “MTT cytotoxicity assay” (setting [2]), this compound showed a viability at 72 h, 0.39 µM of 93.6%; a viability at 72 h, 0.78 µM of 87.3%; a viability at 72 h, 1.57 µM of 78%; a viability at 72 h, 3.13 µM of 30.5%. In “MTT cytotoxicity assay” (setting [2]), this compound yielded a viability at 72 h, 12.5 µM of 0.557% and a viability at 72 h, 25 µM of 1.3%. Moreover, the “toxicity / cytotoxicity against HEK293T cells (in words)” value in the data set with HEK293T cells is reported as “high toxicity”. The “HC10 (concentration inducing 10% hemolysis)” value with sheep red blood cells is 25.0 µM. The “MIC against Gram-negative Acinetobacter baumannii” value with Acinetobacter baumannii worked out at 25 µM (≈ 32.3 µg/mL).
